In test [1] the target is T1, human GSK3 beta (Homo sapiens, UniProt P49841).
T1 construct: Recombinant full-length human GSK3 beta (expressed in Sf9 insect cells with an N-terminal His tag); His (N); purchased SignalChem G09-10H; host or cells: Sf9 insect cells
Kind of test: GSK3 beta enzyme assay (ADP-Glo). The class given is biochemical. Conditions: ATP 25 μM, read-out: GSK3b IC50. A digest of the protocol:
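Full-length His-tagged human GSK3β from Sf9 cells (4 nM) preincubated 30 min at 25 °C with inhibitor in Tris pH 7.5/MgCl2/BSA/DTT, then reacted 60 min at 25 °C with 13 μM substrate peptide and 25 μM ATP. ADP measured by ADP-Glo luminescence; IC50 from four-parameter logistic fit of % inhibition.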
(In general: In ADP-Glo the light output rises with the ADP produced.)

Test [2] deals with T2, human HIPK1 (Homo sapiens, UniProt Q86Z02).
T2 construct: Recombinant human HIPK1 (156-555); GST (N); purchased SignalChem H03-11G; host or cells: Sf9 insect cells
In words: HIPK1 enzyme assay (ADP-Glo). The class given is biochemical. The conditions noted are these: ADP-Glo, ATP 5 μM; read-out: HIPK1 IC50. The gist of the method:
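Recombinant GST-tagged HIPK1 (156-555, Sf9), 4 nM, preincubated 30 min at 25° C with compound in Tris pH 7.5/MgCl2/BSA/DTT, then reacted 90 min with 0.05 mg/ml MBP and 5 μM ATP. ADP formed read by ADP-Glo luminescence; IC50 from four-parameter logistic fit of % inhibition versus Max/Min controls.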

The structures appear in SMILES notation. Some results are limits rather than exact numbers.

T1 sequence (P49841 whole entry): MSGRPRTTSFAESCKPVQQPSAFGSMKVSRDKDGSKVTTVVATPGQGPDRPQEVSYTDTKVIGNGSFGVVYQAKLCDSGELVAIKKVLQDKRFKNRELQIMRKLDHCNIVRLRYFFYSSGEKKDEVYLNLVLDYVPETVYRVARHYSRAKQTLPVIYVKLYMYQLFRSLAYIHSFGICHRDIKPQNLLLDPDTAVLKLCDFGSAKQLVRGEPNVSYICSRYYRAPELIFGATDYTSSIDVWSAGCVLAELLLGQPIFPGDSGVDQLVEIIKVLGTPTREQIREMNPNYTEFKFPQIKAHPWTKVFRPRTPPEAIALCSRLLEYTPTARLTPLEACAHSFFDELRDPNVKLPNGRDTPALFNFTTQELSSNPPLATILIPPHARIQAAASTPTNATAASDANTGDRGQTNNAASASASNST
T2 sequence (Q86Z02 156-555): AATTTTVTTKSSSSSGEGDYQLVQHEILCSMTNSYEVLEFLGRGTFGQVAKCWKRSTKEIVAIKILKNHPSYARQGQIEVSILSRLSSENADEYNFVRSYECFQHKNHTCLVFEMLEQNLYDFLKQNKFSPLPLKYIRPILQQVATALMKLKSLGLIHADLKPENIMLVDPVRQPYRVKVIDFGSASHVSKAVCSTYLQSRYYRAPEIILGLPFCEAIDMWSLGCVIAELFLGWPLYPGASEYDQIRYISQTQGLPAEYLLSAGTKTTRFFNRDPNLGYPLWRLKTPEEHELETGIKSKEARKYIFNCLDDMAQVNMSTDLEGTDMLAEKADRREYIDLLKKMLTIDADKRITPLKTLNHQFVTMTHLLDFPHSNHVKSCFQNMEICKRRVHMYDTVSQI

With `CN(CCN1CCOCC1)C1=N/C(=C\c2ccc3ncsc3c2)C(=O)N1` [Example 32, (Z)-5-(benzo[d]thiazol-6-ylmethylene)-2-(methyl(2-morpholinoethyl)amino)-3,5-dihydro-4H-imidazol-4-one], the IC50 (in general, the concentration at which inhibition is half-maximal) was 1 to 10 µM in test [1] and above 10 µM in test [2].

Regarding `CN(C1=N/C(=C\c2ccc3c(c2)OCO3)C(=O)N1)c1ccc2ncsc2c1` [Example 70, (Z)-5-(benzo[d][1,3]dioxol-5-ylmethylene)-2-(benzo[d]thiazol-6-yl(methyl)amino)-3,5-dihydro-4H-imidazol-4-one], the IC50 in test [1] and in test [2] was above 10 µM each time.

Consider `O=C1NC(N(CC2CC2)c2ccccc2)=N/C1=C\c1ccc2c(c1)OCO2` [Example 10, (Z)-5-(benzo[d][1,3]dioxol-5-ylmethylene)-2-((cyclopropylmethyl)(phenyl)amino)-3,5-dihydro-4H-imidazol-4-one], for which the IC50 in test [1] and in test [2] was above 10 µM throughout.

As for `O=C1NC(Nc2ccc3c(c2)OCCO3)=N/C1=C\c1ccc2ncsc2c1` [Example 81, (Z)-5-(benzo[d]thiazol-6-ylmethylene)-2-((2,3-dihydrobenzo[b][1,4]dioxin-6-yl)amino)-3,5-dihydro-4H-imidazol-4-one], the IC50 in test [1] and in test [2] was 0.1 to 1 µM throughout.

Take `CN(C1=N/C(=C\c2ccc3c(c2)OC(F)(F)O3)C(=O)N1)c1ccccc1` [Example 17, (Z)-5-((2,2-difluorobenzo[d][1,3]dioxol-5-yl)methylene)-2-(methyl(phenyl)amino)-3,5-dihydro-4H-imidazol-4-one]: the IC50 in test [1] and in test [2] was above 10 µM throughout.

For the compound `COc1ccccc1N(C)C1=N/C(=C\c2ccc3c(c2)OCO3)C(=O)N1` [Example 21, (Z)-5-(benzo[d][1,3]dioxol-5-ylmethylene)-2-((2-methoxyphenyl)(methyl)amino)-3,5-dihydro-4H-imidazol-4-one], the IC50 in test [1] and in test [2] was above 10 µM in each case.

As for `Cn1ncc2ccc(/C=C3\N=C(Nc4ccccc4)NC3=O)cc21` [Example 79, 5-((1-methyl-1H-indazol-6-yl)methylene)-2-(phenylamino)-3,5-dihydro-4H-imidazol-4-one], the IC50 in test [1] and in test [2] was above 10 µM throughout.

As for `CN(C1=N/C(=C\c2ccc3c(c2)OCO3)C(=O)N1)c1ccc(N)cc1` [Example 37, (Z)-2-((4-aminophenyl)(methyl)amino)-5-(benzo[d][1,3]dioxol-5-ylmethylene)-3,5-dihydro-4H-imidazol-4-one], the IC50 in test [1] and in test [2] was above 10 µM in each case.

On to `O=C1NC(Nc2ccccc2)=N/C1=C\c1ccc2occc2c1` [Example 52, (Z)-5-(benzofuran-5-ylmethylene)-2-(phenylamino)-3,5-dihydro-4H-imidazol-4-one], for which the IC50 in test [1] and in test [2] was above 10 µM throughout.

Regarding `COc1ccc(NC2=N/C(=C\c3ccc4ncsc4c3)C(=O)N2)cc1` [Example 25, (Z)-5-(benzo[d]thiazol-6-ylmethylene)-2-((4-methoxyphenyl)amino)-3,5-dihydro-4H-imidazol-4-one], the IC50 in test [1] is above 10 µM; in test [2], 0.1 to 1 µM.

`Cn1ncc2cc(/C=C3\N=C(Nc4ccc5ncsc5c4)NC3=O)ccc21` [Example 78, (Z)-2-(benzo[d]thiazol-6-ylamino)-5-((1-methyl-1H-indazol-5-yl)methylene)-3,5-dihydro-4H-imidazol-4-one]: the IC50 in test [1] and in test [2] was above 10 µM throughout.

As for `O=C1NC(N(Cc2ccccc2)c2ccccc2)=N/C1=C\c1ccc2[nH]cnc2c1` [Example 35, (Z)-5-((1H-benzo[d]imidazol-5-yl)methylene)-2-(benzyl(phenyl)amino)-3,5-dihydro-4H-imidazol-4-one], the IC50 in test [1] and in test [2] was above 10 µM each time.

As to `CN(Cc1ccccc1)C1=N/C(=C\c2ccc3c(c2)OCO3)C(=O)N1` [Example 23, (Z)-5-(benzo[d][1,3]dioxol-5-ylmethylene)-2-(benzyl(methyl)amino)-3,5-dihydro-4H-imidazol-4-one], the IC50 in test [1] and in test [2] was above 10 µM in each case.

With `O=C1NC(Nc2ccccc2)=N/C1=C\c1ccc2[nH]ncc2c1` [Example 55, (Z)-5-((1H-indazol-5-yl)methylene)-2-(phenylamino)-3,5-dihydro-4H-imidazol-4-one], the IC50 in test [1] was 0.1 to 1 µM; in test [2] it was above 10 µM.

For `O=C1NC(Nc2ccccc2)=N/C1=C\c1ccc2[nH]cnc2c1` [Example 26, (Z)-5-((1H-benzo[d]imidazol-5-yl)methylene)-2-(phenylamino)-3,5-dihydro-4H-imidazol-4-one], the IC50 in test [1] and in test [2] was 0.1 to 1 µM in each case.

Consider `Cn1cnc2ccc(/C=C3\N=C(Nc4ccccc4)NC3=O)cc21` [Example 46, (Z)-5-((1-methyl-1H-benzo[d]imidazol-6-yl)methylene)-2-(phenylamino)-3,5-dihydro-4H-imidazol-4-one], for which the IC50 in test [1] and in test [2] was 0.1 to 1 µM each time.

With `CN(C1=N/C(=C\c2ccc3ncsc3c2)C(=O)N1)c1ccc([N+](=O)[O-])cc1` [Example 43, (Z)-5-(benzo[d]thiazol-6-ylmethylene)-2-(methyl(4-nitrophenyl)amino)-3,5-dihydro-4H-imidazol-4-one], the IC50 in test [1] and in test [2] was above 10 µM throughout.

Values taken from US12643887B2, “Heterocyclic derivatives with cardiomyocyte proliferation activity for treatment of heart diseases” (Tongji University, priority 2019, dated 2026).
